Laboratory results reported in US8741932B2, “Imidazopyridine derivatives” (Piramal Enterprises Limited, priority 2009, dated 2014).
pIC50: −log10 of the molar value.

How the values were obtained:
[1] = system: OVCAR 3; assay: Cytotoxicity assay (propidium iodide), OVCAR 3; type: cell-based; conditions: Homo sapiens; OVCAR 3 (C3c, ovarian); 48 hours
Protocol: (§1) Cells from cell lines as mentioned in the table given below were seeded at a density of 3000 cells/well in a white opaque 96-well plate. Following incubation at 37° C./5% CO2 for a period of 18-24 hours, the cells were treated with various concentrations (stock solution was prepared in DMSO and subsequent dilutions were made in media as per ATCC guidelines) of the representative compounds of present invention (refer table 3) for a period of 48 hours. At the end of treatment, the spent culture medium was discarded, the cells were washed with 1×PBS and 200 μl of 7 μg/ml propidium iodide was added to each well. The plates were frozen at −70° C. for at least 24 hours. For analysis, the plates were brought to RT, allowed to thaw and were read in PolarStar fluorimeter with the fluorescence setting. The percentage of viable cells in the non treated set of wells was considered to be 100 and the percentage viability following treatment was calculated accordingly. IC50 values were calculated from graphs plotted using these percentages.

[2] = system: PANC 1; assay: Cytotoxicity assay (propidium iodide), PANC 1; type: cell-based; conditions: Homo sapiens; PANC 1 (C5a, pancreatic); 48 hours
Protocol: as §1

[3] = system: PC3; assay: Cytotoxicity assay (propidium iodide), PC3; conditions: Homo sapiens, PC-3, 48 h, read-out: IC50 cytotoxicity
[4] = system: CAPAN1; assay: Cytotoxicity assay (propidium iodide), CAPAN1; type: cell-based; conditions: Homo sapiens, CAPAN-1; CAPAN1 (C5b, pancreatic); 48 hours
Protocol: as §1

[5] = system: HCT116; assay: Cytotoxicity assay (propidium iodide), HCT116; type: cell-based; conditions: Homo sapiens, HCT-116; HCT116 (C4b, colon); 48 hours
Protocol: as §1

[6] = system: H460; assay: Cytotoxicity assay (propidium iodide), H460; type: cell-based; conditions: Homo sapiens, NCI-H460; H460 (C1b, lung); 48 hours
Protocol: as §1

[7] = system: TNF-α; assay: Human monocyte assay, LPS-stimulated TNF-α; type: cell-based; conditions: human monocytes, 1 μg/ml LPS, 5 hours
Protocol: The assay was designed as in the reference, Physiol.
Peripheral blood mononuclear cells (hPBMC) were harvested from human blood and suspended in RPMI 1640 culture medium containing 10% FCS, 100 U/mL penicillin and […] streptomycin (assay medium). Monocytes in the hPBMCs were counted using a Coulter Counter following which the cells were resuspended at 2×10^5 monocytes/mL. A cell suspension containing 2×10^4 monocytes was aliquoted per well of a 96-well plate. Subsequently, the hPBMCs were incubated for 4-5 hours at 37° C., 5% CO2 (During the incubation, the monocytes adhered to the bottom of 96-well plastic culture plate). Following the incubation, the non-adherent lymphocytes were washed with assay medium and the adherent monocytes re-fed with assay medium. After a 48-hour incubation period (37° C., 5% CO2), monocytes were pretreated with various concentrations of representative compounds of present invention (refer to table 6 and 7) (prepared in DMSO) or vehicle (0.5% DMSO) for 30 minutes and stimulated with 1 μg/ml LPS (Escherchia coli 0111:B4, Sigma Chemical Co., St. Louis, Mo.). The incubation was continued for 5 hours at 37° C., 5% CO2. Supernatants were harvested, assayed for IL-6 and TNF-α by ELISA as described by the manufacturer (BD Biosciences, USA). Dexamethasone (10 μM) was used as standard for this assay. […] Biological results for both IL-6 and TNFα are indicated in Table 6 and Table 7 respectively.

[8] = system: IL-6; assay: Human monocyte assay, LPS-stimulated IL-6; type: cell-based; conditions: Monocyte; human monocytes, 1 μg/ml LPS, 5 hours
Method in brief: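 Adherent human PBMC-derived monocytes (2×10^4/well) were cultured 48 h, preincubated 30 min with compound or 0.5% DMSO, then stimulated with 1 μg/ml E. coli LPS for 5 h at 37° C. TNF-α and IL-6 in supernatants were measured by ELISA.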

[9] = system: STAT3; assay: STAT3 bioassay (Hela Stat3-luc, luciferase); type: cell-based; conditions: Homo sapiens, Oncostatin M induction
Protocol: Cells were seeded (Hela Stat3-luc, ATCC P/N 30-2002) in a white 96 well plate (Nunc cat.no.136101) at a density of 20,000cells/well in 179 μl volume per well (DMEM from Sigma containing 10% FCS). The plate was incubated for 24 hours at 37° C./5% CO2. The cells (wells in triplicates) were then treated with 1 μl/well of 200× stock of the desired compound concentration prepared in 100% DMSO. Curcumin was used as a standard or positive control, added 10 μg/ml in triplicate. DMSO was used as medium control (1 μl/well added in triplicates). The plate was incubated at 37° C./5% CO2 for 1 hour. 20 μl/well Oncostatin M (Oncostatin M, Human, Recombinant, E. coli, Cat.No. 496260, 10 μg from Calbiochem) was added to treated wells, induction control (in triplicate) (1000 ng/ml stock prepared in serum free medium to get final concentration 100 ng/ml). The plate was then incubated for 7-8 hours at 37° C./5% CO2 for induction. A typical assay would consist of triplicate of medium control, triplicate of induction control, triplicate of positive/standard control and test compounds at desired concentration in triplicates. For termination Luciferase assay protocol was followed where the culture medium was removed from all the wells.
200 μl well of PBS was added to remove traces of medium and compound. The PBS was discarded. 40 μl/well of 1× lysis buffer was added to all the wells. The plate was incubated at RT for 20 minutes with intermittent shaking. 100 μl/well of LAB reagent was added to all the wells in dark. {LAB reagent for 1 plate=8 ml Luciferase assay buffer (LAB)+1 ml Coenzyme A (Sigma cat no. C3019) (2.1 mg/ml stock in LAB)+530 μL of ATP (Sigma cat.no.A2383) (5.85 mg/ml stock in LAB)+1 ml luciferin reagent (Promega cat no.245355) (2 mg/ml stock in LAB, protect from light)}.
The luminescence was immediately read on polar star. The values were expressed as percentage inhibition, in terms of treated values to that STAT3 (induction control). IC50 values were calculated from graphs using these percentages.

[10] = system: A2780; assay: Cytotoxicity assay (propidium iodide), A2780; type: cell-based; conditions: Homo sapiens; A2780 (C3a, ovarian); 48 hours
[11] = system: A549; assay: Cytotoxicity assay (propidium iodide), A549; type: cell-based; conditions: Homo sapiens; A549 (C1a, lung); 48 hours
[12] = system: MDA MB 468; assay: Cytotoxicity assay (propidium iodide), MDA MB 468; type: cell-based; conditions: Homo sapiens; MDA MB 468 (C6b, breast); 48 hours
Protocol: as §1

[13] = biological target: T1, PI3Kα kinase (Homo sapiens, UniProt P42336); assay: Kinase assay (PI3Kα); type: biochemical; conditions: read-out: IC50 (μM) for PI3K inhibition
T1 construct: purchased Millipore, USA
T1 sequence (P42336 whole entry): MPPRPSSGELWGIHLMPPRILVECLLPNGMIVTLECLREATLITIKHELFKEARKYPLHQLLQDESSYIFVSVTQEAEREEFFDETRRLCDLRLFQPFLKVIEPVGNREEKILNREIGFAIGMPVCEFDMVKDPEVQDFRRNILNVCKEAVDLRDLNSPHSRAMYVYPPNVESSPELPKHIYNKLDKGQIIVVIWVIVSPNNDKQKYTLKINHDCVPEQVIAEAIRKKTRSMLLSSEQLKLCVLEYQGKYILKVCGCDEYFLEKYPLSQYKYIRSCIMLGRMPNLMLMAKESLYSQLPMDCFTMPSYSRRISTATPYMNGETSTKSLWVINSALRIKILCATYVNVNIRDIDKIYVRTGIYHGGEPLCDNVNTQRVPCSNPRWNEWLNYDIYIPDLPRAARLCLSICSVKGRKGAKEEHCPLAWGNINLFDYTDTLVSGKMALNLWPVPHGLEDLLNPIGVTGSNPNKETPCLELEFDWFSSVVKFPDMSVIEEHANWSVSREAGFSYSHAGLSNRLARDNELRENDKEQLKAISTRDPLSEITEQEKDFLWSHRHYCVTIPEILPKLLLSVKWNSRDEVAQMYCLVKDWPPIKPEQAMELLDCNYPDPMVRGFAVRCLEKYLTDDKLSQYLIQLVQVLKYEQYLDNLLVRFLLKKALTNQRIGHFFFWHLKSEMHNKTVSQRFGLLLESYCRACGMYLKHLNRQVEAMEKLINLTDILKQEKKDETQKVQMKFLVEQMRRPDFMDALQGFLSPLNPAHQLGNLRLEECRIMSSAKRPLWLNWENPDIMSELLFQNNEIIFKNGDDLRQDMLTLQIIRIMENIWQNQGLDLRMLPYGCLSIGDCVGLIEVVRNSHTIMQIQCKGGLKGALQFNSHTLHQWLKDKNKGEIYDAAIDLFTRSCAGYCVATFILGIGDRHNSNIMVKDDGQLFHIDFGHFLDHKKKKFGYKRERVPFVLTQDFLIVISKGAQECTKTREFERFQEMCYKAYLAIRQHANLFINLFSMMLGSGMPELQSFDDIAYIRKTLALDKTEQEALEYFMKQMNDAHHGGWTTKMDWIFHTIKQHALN
T1 sequence (P27986 whole entry partner): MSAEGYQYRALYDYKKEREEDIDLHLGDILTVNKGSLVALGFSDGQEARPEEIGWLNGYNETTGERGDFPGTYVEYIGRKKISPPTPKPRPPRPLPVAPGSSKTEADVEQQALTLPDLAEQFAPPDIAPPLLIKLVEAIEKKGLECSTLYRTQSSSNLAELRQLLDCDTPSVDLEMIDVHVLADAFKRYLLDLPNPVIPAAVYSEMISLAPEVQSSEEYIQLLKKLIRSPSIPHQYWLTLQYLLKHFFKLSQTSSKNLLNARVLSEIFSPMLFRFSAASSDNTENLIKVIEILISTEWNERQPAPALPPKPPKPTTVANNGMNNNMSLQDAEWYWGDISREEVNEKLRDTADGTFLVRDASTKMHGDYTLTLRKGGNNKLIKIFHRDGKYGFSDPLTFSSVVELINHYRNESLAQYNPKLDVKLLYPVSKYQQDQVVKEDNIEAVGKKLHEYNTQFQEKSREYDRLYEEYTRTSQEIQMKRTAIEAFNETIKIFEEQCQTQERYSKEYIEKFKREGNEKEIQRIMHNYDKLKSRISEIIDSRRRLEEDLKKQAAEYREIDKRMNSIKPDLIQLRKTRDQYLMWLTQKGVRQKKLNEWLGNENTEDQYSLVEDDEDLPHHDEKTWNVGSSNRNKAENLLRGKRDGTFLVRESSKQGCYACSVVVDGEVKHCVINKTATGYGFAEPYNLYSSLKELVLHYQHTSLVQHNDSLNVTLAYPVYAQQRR
Protocol: The kinase reaction was carried out in a 25 μL volume in a 1.5 mL microcentrifuge tube. The reaction mixture consisted of kinase buffer (10 mM Hepes, pH 7.5, 50 mM MgCl2), 20 ng PI3Kα kinase (Millipore, USA), 12.5 μg phosphotidylinositol (PI), 10 μM ATP and 1 μCi ^32γ P […]. […] The reactions were incubated at 30° C. for 20 minutes and were terminated by adding 1:1 mixture of MeOH and CHCl3. The tube contents were mixed on a vortex mixer and centrifuged at 10000 rpm for 2 minutes. 10 μL of the organic (lower) phase was spotted on to a TLC plate (silica, mobile phase: n-propanol and 2 M glacial acetic acid in 65:35 ratio). The plates were dried and exposed to an X-ray film. The bands appearing as a result of ^32γ P incorporation in PI were quantitated using the Quantityl)ne (BioRad, USA) densitometry program. PI-103 (Calbiochem, USA) was used as a standard.

[14] = biological target: T2, mTOR (Homo sapiens, UniProt P42345); assay: mTOR activity assay (cell ELISA, Phospho-AKT Ser 473, A2780 cells); type: cell-based; conditions: 1 μM, read-out: % Inhibition of mTOR activity at 1 μM
T2 construct: endogenous in cells; host or cells: A2780 ovarian cell line (ATCC)
Protocol: Seed cells (Ovarian cell line A2780, ATCC) were plated in a 96 well microtitre plate at a density of 50,000 cells/cm^2 in appropriate complete cell culture medium. The cells were allowed to adhere for 18-24 hours. The cells were allowed to starve for 24 hours. […] Then the cells were stimulated with 20% FCS for 30 minutes. A typical assay would consist of a set of unstimulated cells, a set of stimulated cells and a set of cells treated with compounds of present invention and a set of cells treated with the stimulator. The medium was discarded. The cells were fixed with 100 μL of 3.7% formaldehyde for 15 minutes. The formaldehyde was discarded by inverting the plate and tapping it on a thick tissue paper layer to remove traces. The cells were washed and permeabilized with 200 μL PBS+Triton-X 100 solution (hereafter referred to as PBS-Triton, containing 0.1% triton-X 100 in 1×PBS) three times, incubating the cells each time for 5 minutes. 100 μL blocking solution (10% FCS in PBS-Triton) was added and incubated for 1 hour at 25° C. The blocking solution was discarded and cells were incubated with the primary antibody in PBS-Triton at a dilution of 1:500 for 1 hour at RT (25° C.). [The primary antibody is Phospho-AKT (Ser 473); Cell Signaling; Cat. No. 9271]. The primary antibody solution was discarded and the cells were washed 3 times with PBS-Triton solution and incubated with the HRP-conjugated secondary antibody in PBS-Triton at a dilution of 1:500 for 1 hour at RT (25° C.). The cells were washed 3 times with PBS-Triton followed by two washes with PBS (to remove traces of triton-X 100). The OPD (o-phenylene diamine dihydrochloride) substrate was prepared for detection of the signal by dissolving one tablet set (two tablets) of SigmaFast OPD (Sigma, Cat No. P9187) in 20 mL distilled water. It should be protected from light. 100 μL OPD solutions was added to the wells and the plate was incubated in the dark for 3-5 minutes (depending upon the development of the color). The reaction was stopped by adding 50 μL 2 N H2SO4. The absorbance was measured at 490 nm. The values were expressed in the treated samples, in terms of percentage or fold decrease in AKT phosphorylation with respect to the induced sample. PI-103 (Calbiochem, USA) was used as a standard.

[15] = system: G361; assay: Cytotoxicity assay (propidium iodide), G361; type: cell-based; conditions: G-361; G361 (C9a, human melanoma); 48 hours
Protocol: as §1

[16] = system: MCF7; assay: Cytotoxicity assay (propidium iodide), MCF7; type: cell-based; conditions: Homo sapiens; MCF7 (C6c, breast); 48 hours
Protocol: as §1

[17] = system: MDA MB 231; assay: Cytotoxicity assay (propidium iodide), MDA MB 231; type: cell-based; conditions: Homo sapiens; MDA MB 231 (C6a, breast); 48 hours
Protocol: as §1

[18] = system: HT29; assay: Cytotoxicity assay (propidium iodide), HT29; type: cell-based; conditions: Homo sapiens, HT-29; HT29 (C4a, colon); 48 hours
Protocol: as §1

Work on CN(N=Cc1cnc2ccc(-c3cccnc3)cn12)S(=O)(=O)c1ccccc1 [Example 1, N-methyl-N′-((6-(pyridin-3-yl)imidazo[1,2-a]pyridin-3-yl)methylene)benzenesulfonohydrazide] yielded a pIC50 [1] of 5.30 to 8.00, a pIC50 [2] of 5.30 to 8.00 and a pIC50 [3] of 5.30 to 8.00. It also gave a pIC50 [4] of 5.30 to 8.00, a pIC50 [5] of 5.30 to 8.00 and a pIC50 [6] of 5.30 to 8.00. For the same compound, the pIC50 [7] was 6.00 to 9.00, the IC50 [8] was 0.001 to 5 µM and the pIC50 [9] was 5.00 to 5.30. The pIC50 [10] was 5.30 to 8.00 and the pIC50 [11] was 5.30 to 8.00.
CN(N=Cc1cnc2ccc(-c3cccnc3)cn12)S(=O)(=O)c1cccc(Br)c1 [Example 7, 3-Bromo-N-methyl-N′-((6-(pyridine-3-yl)imidazo[1,2-a]pyridine-3-yl)methylene) benzenesulfonohydrazide] showed a pIC50 [12] of under 5.30, an IC50 [13] of 0.01 to 0.5 µM and a pIC50 [3] of under 5.30. For the same compound, the inhibition at 1 µM [14] was 30 to 50%, the pIC50 [15] was under 5.30 and the pIC50 [16] was under 5.30. It also gave a pIC50 [6] of under 5.30 and a pIC50 [11] of under 5.30.
Work on CN(N=Cc1cnc2ccc(-c3cccnc3)cn12)S(=O)(=O)c1ccc(F)c(Cl)c1 [Example 18, 3-Chloro-4-fluoro-N-methyl-N′-((6-(pyridine-3-yl)imidazo[1,2-a]pyridine-3-yl)methylene) benzenesulfonohydrazide] yielded a pIC50 [12] of under 5.30, an IC50 [13] of 0.01 to 0.5 µM and a pIC50 [3] of under 5.30. It also gave a pIC50 [15] of under 5.30, a pIC50 [16] of under 5.30 and a pIC50 [6] of under 5.30. For the same compound, the pIC50 [11] was under 5.30.
For Cc1cc(C)c(S(=O)(=O)N(C)N=Cc2cnc3ccc(-c4cccnc4)cn23)c(C)c1 [Example 27, N, 2,4,6-tetramethyl-N′-((6-(pyridine-3-yl)imidazo[1,2-a]pyridine-3-yl)methylene)benzenesulfonohydrazide], the pIC50 [12] was under 5.30, the IC50 [13] was 0.01 to 0.5 µM and the pIC50 [3] was under 5.30. The pIC50 [15] was under 5.30, the pIC50 [16] was under 5.30 and the pIC50 [6] was under 5.30. For the same compound, the pIC50 [11] was under 5.30.
CN(N=Cc1cnc2ccc(-c3cccnc3)cn12)S(=O)(=O)c1cccc2cccnc12 [Example 30, N-methyl-N′-((6-(pyridine-3-yl)imidazo[1,2-a]pyridine-3-yl)methylene) quinoline-8-sulfonohydrazide] showed a pIC50 [12] of under 5.30, a pIC50 [3] of under 5.30 and a pIC50 [15] of under 5.30. For the same compound, the pIC50 [16] was under 5.30, the pIC50 [6] was under 5.30 and the IC50 [8] was at least 5 µM. For the same compound, the pIC50 [11] was under 5.30.
CN(N=Cc1cnc2ccc(-c3cccnc3)cn12)S(=O)(=O)C1CCCCC1 [Example 31, N-methyl-N′-((6-(pyridine-3-yl)imidazo[1,2-a]pyridine-3-yl)methylene) cyclohexanesulfonohydrazide] was tested, and the pIC50 [17] was 5.30 to 8.00, the pIC50 [3] was 5.30 to 8.00 and the pIC50 [18] was under 5.30. The pIC50 [6] was 5.30 to 8.00, the pIC50 [10] was 5.30 to 8.00 and the pIC50 [11] was 5.30 to 8.00.
Cc1ccc([N+](=O)[O-])cc1S(=O)(=O)N(C)N=Cc1cnc2ccc(-c3ccncc3)cn12 [Example 85, N, 2-dimethyl-5-nitro-N′-((6-(pyridine-4-yl)imidazo[1,2-a]pyridine-3-yl)methylene) benzenesulfonohydrazide] showed a pIC50 [17] of 5.30 to 8.00, a pIC50 [3] of 5.30 to 8.00 and a pIC50 [18] of under 5.30. It also gave a pIC50 [6] of 5.30 to 8.00, a pIC50 [10] of 5.30 to 8.00 and a pIC50 [11] of 5.30 to 8.00.
